The record followed here is patent US20230381171A1, “AUTOIMMUNE THERAPY” (LDN Pharma Limited, priority 2018, published 2023).

Common to all, as to type: in vivo, human
The nature of data set [1]: Laboratory hormone levels of supplemented hormones (Example 3). On the procedure: They were also prescribed Dehydroepiandrosterone (DHEA) 5 mg and Nature Throid thyroid hormone supplement 48.75 mg, progesterone 100 mg every night and testosterone cream 4 mg per day for low libido, and they were taking turmeric and krill oil. They started tapering off the plaquenil.
During treatment estradiol 1.0 mg was started and also at this point they were off the plaquenil for 3 weeks totally. […] In addition, their Free T3 (triiodothyronine) was 3.1.
During the treatment regimen, the administered DHEA was increased to 10 mg. The DHEA hormone was measured to be 203, Estradiol 117, progesterone 0.2, T3 3.3.
The patient's levels are at optimal levels where the T3 is in the upper range.

For data set [2], the system named is Hashimotos Thyroiditis, Fibromyalgia and Eosinophilic Esophaqitis. Description: Case report Example 1: patient treated with LDN and Vitamin D. The following applies: LDN 1.5 to 4.5 mg daily, Vitamin D 5,000 then 7,000 units per day. The protocol: Patient's symptoms included severe fatigue and muscle aches and pains over their body from the fibromyalgia. They were already taking Vitamin D at a daily dosage of 5,000 units and 130 mg of Nature Throid supplementation (a porcine product). For the first week of LDN treatment, the patient was administered daily dosages of 1.5 mg LDN and the 5,000 units of Vitamin D continued. During the second week, the daily dosage of LDN was increased to 3.0 mg. During the third week, the daily dosage of LDN was increased to 4.5 mg. […] Administration of Vitamin D was increased to 7,000 units per day.
Her thyroid medication requirements were reduced. Her symptoms of fibromyalgia were resolved after addition of the naltrexone to the regimen.

Data set [3] has as its system Systemic Lupus Erythematosus (SLE) and Sjorgren's Disease. Description: Case report Example 3: patient treated with naltrexone and Vitamin D3. The following applies: plaquenil 200 mg twice a day, before naltrexone.
A short description of data set [4]: SpectraCell test of Vitamin D levels (Example 1). Particulars: after a month of treatment; Vitamin D 5,000 units daily; 55 is adequate. The source says: A sufficient amount can be determined by the skilled person by making a routine assessment of certain parameters of the patient to undergo the administration, such as, but not limited to, age, weight, gender, history of illness and/or other lifestyle factors including smoking, alcohol consumption and the level of exercise. Furthermore the skilled person can ascertain whether a dose has been sufficient to raise the vitamin D blood concentration to a sufficient amount by performing routine biochemical and analytical assays on a biological sample obtained from the subject. Preferably, the sample upon which said analysis is to be performed is blood. Examples of such well known assays include but are not limited to mass spectrometry, where the level of vitamin D or active metabolites thereof can be quantitatively measured. A sufficient amount is therefore an amount that achieves the desired blood vitamin D concentration. The desired concentration can be achieved after single administration or after repeated administrations of a dose of vitamin D or an active metabolite thereof. […]

Data set [5] in a line: Standard serum test of vitamin D level (Example 2). On the procedure:
The patient was receiving Synthroid as treatment for hypothyroidism, and they also presented with a rare form of macular degeneration requiring intra-ocular injections and interstitial cystitis. […] At the time they were not aware they had autoimmune thyroiditis.
Their dosage for Nature Throid was 97.5 mg twice a day for their thyroid supplementation. Their vitamin D level was 45 ng/ml, T3 was 4.1 and T4 (thyroxine, which converts into T3 in peripheral tissues) was 0.84. Their thyroid has stabilized as shown by these values; the patient's levels are at optimal levels where the T3 is in the upper range.

The test system of data set [6] is Thyroiditis. In words: Case report Example 2: patient with thyroiditis treated with LDN and Vitamin D. Particulars: 5,000 units of Vitamin D per day, before naltrexone.
From the text: This antibody activity then can interfere with the ability to incorporate iodine into the thyroid molecule, thus interfering with thyroid cell function.
Where [7] appears, read: testosterone cream 4 mg per day, later measurements.

With `C[C@]12CC[C@H](O)CC1=CC[C@@H]1[C@@H]2CC[C@]2(C)C(=O)CC[C@@H]12` [DHEA, Dehydroepiandrosterone], the figures for the DHEA hormone level in data set [1] (DHEA increased to 10 mg), in data set [1] (last laboratory results) and in data set [1] (later measurements) were 203, 169 and 142, respectively.

For the molecule `O=C1CC[C@@]2(O)[C@H]3Cc4ccc(O)c5c4[C@@]2(CCN3CC2CC2)[C@H]1O5` [naltrexone, morphinan-6-one,17-(cyclopropylmethyl)-4,5-epoxy-3,14-dihydroxy-(5a)], the fibromyalgia symptoms entry in data set [2] was “resolved”.

In the case of `CCN(CCO)CCCC(C)Nc1ccnc2cc(Cl)ccc12` (centres unmarked) [plaquenil], the benefit on symptoms result in data set [3] was “minimal benefit”.

In data set [1] (setting [7]), `C[C@]12CC[C@H]3[C@@H](CCC4=CC(=O)CC[C@@]43C)[C@@H]1CC[C@@H]2O` [testosterone] registered a Free testosterone of 1.3 and a total testosterone of 19.

Turning to Vitamin D, the “Vitamin D levels (SpectraCell test)” value in data set [4] stood at 47. Also, in data set [5] (5,000 units of vitamin D daily, standard serum test, deficient level), the “vitamin D 25 OH level” value worked out at 39. In addition, the “vitamin D level” value in data set [5] (during LDN and Vitamin D treatment) worked out at 45 ng/mL. Moreover, in data set [6], the “effect in regards to interstitial cystitis” value is on record as “did not seem to have any significant effect”.
